The assay has as its target Prokineticin receptor 1 (Homo sapiens, UniProt Q8TCW9). Description: Antagonist activity at human PKR1 expressed in RBL2H3 cells assessed as inhibition of prokineticin1-mediated intracellular calcium release preincubated for 10 mins followed by PK1 addition by FLIPR assay. The class given is functional, cell-based, RBL-2H3. (Calcium assays in cells follow changes in intracellular calcium, usually with a dye or a luminescent sensor.)

Chain of Prokineticin receptor 1 (Q8TCW9 whole entry): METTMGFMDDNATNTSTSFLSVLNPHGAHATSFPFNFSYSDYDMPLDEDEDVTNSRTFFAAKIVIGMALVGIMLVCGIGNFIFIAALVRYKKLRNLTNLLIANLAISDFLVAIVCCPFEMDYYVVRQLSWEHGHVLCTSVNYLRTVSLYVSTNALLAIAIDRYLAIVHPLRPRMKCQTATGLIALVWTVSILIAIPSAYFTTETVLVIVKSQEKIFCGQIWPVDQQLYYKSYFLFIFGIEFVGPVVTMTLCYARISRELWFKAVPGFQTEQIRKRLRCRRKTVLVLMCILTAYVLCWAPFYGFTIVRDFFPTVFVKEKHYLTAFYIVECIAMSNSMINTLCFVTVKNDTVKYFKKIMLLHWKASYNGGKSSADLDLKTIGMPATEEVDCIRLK

`Cc1n[nH]c(C)c1S(=O)(=O)N1CCC(=C(F)c2ccc(F)cc2F)CC1`: the 50% inhibitory concentration (IC50) (as a rule, the concentration at which inhibition is half-maximal) turned out to be 1630 nM.

The record behind these values is ChEMBL document CHEMBL3879916, “1-sulfonyl piperidine derivatives as modulators of prokineticin receptors” (2014).
